Experiment [1] has as its system histone H3. The experiment is described as follows: histone H3 acetylation in Na-butyrate treated MCF-7 cells (immunoblot). The format is cell-based, human. The source says:
(§1) Deacetylated histones are substrates for histone acetylation and for chromatin remodelling which has been associated with eukaryotic transcriptional regulatory mechanisms (K Struhl, Genes Dev., vol. 12, 599,1998; M. Grunstein, Nature, vol. 389,349, 1997).

Experiment [2] concerns the target T1, histone H4 (Homo sapiens, UniProt P62805).
T1 construct: endogenous in cells; host or cells: MCF-7
The experiment is described as follows: histone H4 acetylation in Na-butyrate treated MCF-7 cells (immunoblot). The format is cell-based. Particulars: absence of lunasin.
From the text: as §1

For experiment [3], the target named is T2, histone H4 (Mus musculus, UniProt P62806).
T2 construct: endogenous in cells; host or cells: C3H 10T1/2 mouse embryo fibroblasts
The experiment in a line: histone H4 acetylation in Na-butyrate treated C3H cells (immunoblot). As to conditions: absence of lunasin. The format is cell-based, murine.
From the text: as §1

The subject of experiment [4] is histone H3. The experiment in a line: histone H3 acetylation in Na-butyrate treated C3H cells (immunoblot). The format is cell-based, murine.
From the text: as §1

Experiment [5] deals with deacetylated H4 N-terminal tail peptide. The experiment is described as follows: in vitro immuno-binding assay, increasing dose of deacetylated H4 peptide (FIG. 10).
The target in experiment [6] is histone H3 in MCF-7 cells (human).
Experiment [7] addresses T3, deacetylated H4 N-terminal tail (Homo sapiens, UniProt P62805).
T3 construct: using acetylated and deacetylated forms of the H4 N-terminal tail
The experiment is described as follows: in vitro immuno-binding assay, deacetylated H4. Particulars: for binding to deacetylated H4 N-terminus: FIG. 9.

For another experiment, the target named is T4, tetra-acetylated H4 (Homo sapiens, UniProt P62805).
T4 construct: using acetylated and deacetylated forms of the H4 N-terminal tail
The experiment is described as follows: in vitro immuno-binding assay, tetra-acetylated H4. As to conditions: FIG. 9.

The test system of experiment [8] is mice embryo fibroblast cells (C3H 10T½). The experiment is described as follows: cell adhesion assay with synthetic lunasin peptides. The format is cell-based. Particulars: C3H 10T½ cells, FIG. 2. The source says: (§2) Lunasin contains the cell adhesion motif RGD (arg-gly-asp). […] However, at this stage of mitosis, kinetochore assembly and spindle fiber attachment to centromeres had already transpired.

In another experiment the test system is C3H cells. The experiment is described as follows: lunasin treatment followed by E1A oncogene transfection (apoptosis). The format is cell-based, murine. Particulars: 20 h after transfection. The source says:
As a negative control, E1A with deleted conserved region 1 (E1AΔCR1) that abolishes the RB binding domain was likewise used in the transfection experiments (D. Trouche, T. Kouzidares, Proc. Natl. Acad. Sci., USA, vol. 93, 1439 (1996)).

Experiment [9] deals with murine embryo fibroblast cells. The experiment in a line: exogenous application of lunasin to growth media, immunostaining. The format is cell-based.
From the text: as §2

Another experiment concerns C3H 10 T½ cells. The experiment is described as follows: cell transformation assay (carcinogen-induced foci formation). The class given is cell-based, murine. Particulars: FIG. 6, FIG. 12.
Setting [10] is: treated with lunasin for 24 h, then E1Awt.

From patent publication US20030027765A1, “Therapeutic peptides having a motif that binds specifically to non-acetylated H3 and H4 histones for cancer therapy” (priority 2000, published 2003) come the findings set out here.

“Also recorded” adds a separate entry of the source.

In the case of `CCCC(=O)[O-].[Na+]` [Na-butyrate, reference compound], the “increase of H3 acetylation” value with histone H3 [1] (MCF-7 cells, Na-butyrate treatment) is “around 400 fold”; with histone H3 [4] (C3H cells, Na-butyrate treatment) it was 100 fold. Moreover, the “increase of histone H4 acetylation” value at histone H4 [2] and on histone H4 [3] was 200 fold throughout.
Consider Lunasin peptide, for which the binding against trLunasin-del in [5] stood at 3 x. Also, the acetylated H3 on immunoblots of acid-extracted proteins, Na-butyrate treated MCF-7 cells in experiment [6] was determined as 4 fold.
For the compound “Lunasin-GRG: lunasin with deleted RGD motif (SKWQHQQDSCRKQLQGVNLTPCEKHIMEKIQGDDDDDDDD)”, the “binding to deacetylated H4 N-terminus” value in experiment [7] was “high affinity”. Moreover, the “binding to tetra-acetylated H4” value with tetra-acetylated H4 is “not to the tetra-acetylated H4”. Further, the “cell adhesion to C3H cells” value in experiment [8] is listed as “prevented cell adhesion”.
Regarding “NLS-trLunasin: truncated lunasin peptide with the helix substituted by a nuclear localization sequence (NLS) (LEEKQKKKMEKEQGRGDDDDDDDDD; Glycine max; NLS-trLunasin)”, the “binding to deacetylated H4 N-terminus” value in experiment [7] is “loss of binding to deacetylated H4”.
As for “Ser-Lys-Trp-Gln-His-Gln-Gln-Asp-Ser-Cys-Arg-Lys-Gln-Leu-Gln-Gly-Val-Asn-Leu-Thr-Pro-Cys-Glu-Lys-His-Ile-Met-Glu-Lys-Ile-Gln-Gly-Arg-Gly-Asp -Asp-Asp-Asp-Asp-Asp-Asp-Asp-Asp [Lunasin]”, the “reduction of H3 acetylation” value in the experiment on histone H3 [1] (MCF-7 cells, lunasin added prior to Na-butyrate treatment) stood at 4 fold. Moreover, the “acetylated H3 on immunoblots of acid-extracted proteins” value is listed as “significant reduction” in the experiment on histone H3 [1] (Na-butyrate treated MCF-7 cells pretreated with 1 μM lunasin, FIG. 13) and “significant reduction” in the experiment on histone H3 [4] (Na-butyrate treated C3H cells pretreated with 1 μM lunasin, FIG. 13). In addition, the “cell state after E1A-ΔCR1 transfection” value in the experiment with C3H cells (presence of lunasin) is “normally dividing cells”. For the same compound, the “Annexin V staining of non-adherent cells (apoptosis)” value with C3H cells (setting [10]) is given as “positive fluorescent staining for Annexin V-HITC”. Moreover, the “cell state after E1Awt transfection” value in the experiment with C3H cells (setting [10]) is given as “preponderance of non-adherent cells”. Also, in experiment [8], the “cell adhesion to C3H cells” value is “adhered to C3H cells in a dose-dependent manner”. For the same compound, the “Na-butyrate-induced increase in H3 acetylation upon addition of lunasin” value in the experiment with histone H3 [4] (C3H cells) is recorded as “no observed increase”. For the same compound, the internalization into cells entry in experiment [9] (applied exogenously to the growth media, FIG. 3) is “became internalized”. The “chromosomal binding site of internalized peptide” value in [9] (applied exogenously, metaphase) is listed as “preferentially binding to the telomeres of chromosomes during metaphase”. Besides, the “effect on cell division and proliferation” value in experiment [9] (exogenous application) was “did not affect cell division and proliferation”. Moreover, the “effect on kinetochore assembly” value in experiment [9] (internalized lunasin) is reported as “did not affect kinetochore assembly”.
“trLunasin-del: 10 amino acid peptide fragment spanning a helical domain upstream of the poly-aspartyl carboxyl end of lunasin (EKHIMEKIQG; Glycine max; trLunasin-del)”: in [7] (FIG. 10), the “binding affinity to deacetylated H4 relative to NLS-trLunasin” value was “significantly higher affinity”.
In the case of “trLunasin: truncated lunasin that contains only the reactive carboxyl end of the peptide (EKHIMEKIQGRGDDDDDDDDD; Glycine max; trLunasin)”, the “anti-transformation property / efficacy in preventing foci transformation” value in the experiment on C3H 10 T½ cells is recorded as “reduced efficacy”. In addition, in [7], the “binding affinity to deacetylated H4 relative to trLunasin-del” value was “not significantly different” and the “binding to deacetylated H4 N-terminus” value was “significant reduction in deacetylated H4 binding; also recorded: lower binding affinity”.
